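Briefly, cells in 96-well plates were exposed to five compound concentrations for 48 h, and endpoints were estimated by linear interpolation. At the GI50, growth is halved. The concentration for full growth arrest is given as TGI.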
How the values were obtained:
Assay in all cases: NCI anticancer screen, dose series, 48 h
PC-3 prostate = system: PC-3 prostate
HOP-62 NSCLC = system: HOP-62 NSCLC
IGROV1 ovarian = system: IGROV1 ovarian
SK-MEL-28 melanoma = system: SK-MEL-28 melanoma
LOX IMVI melanoma = system: LOX IMVI melanoma
UACC-257 melanoma = system: UACC-257 melanoma
K-562 leukemia = system: K-562 leukemia
HOP-92 NSCLC = system: HOP-92 NSCLC
SF-268 CNS = system: SF-268 CNS
KM12 colon = system: KM12 colon
SNB-19 CNS = system: SNB-19 CNS
NCI-H460 lung = system: NCI-H460 lung
786-0 renal = system: 786-0 renal
NCI-H23 lung = system: NCI-H23 lung
SK-MEL-5 melanoma = system: SK-MEL-5 melanoma
HT29 colon = system: HT29 colon
MDA-MB-435 = system: MDA-MB-435
OVCAR-8 ovarian = system: OVCAR-8 ovarian
CAKI-1 renal = system: CAKI-1 renal
HCT-116 colon = system: HCT-116 colon
HCC-2998 colon = system: HCC-2998 colon
SK-OV-3 ovarian = system: SK-OV-3 ovarian
MDA-MB-231 breast = system: MDA-MB-231 breast
NCI/ADR-RES ovarian = system: NCI/ADR-RES ovarian
ACHN renal = system: ACHN renal
MCF7 breast = system: MCF7 breast
A498 renal = system: A498 renal
RXF 393 renal = system: RXF 393 renal
TK-10 renal = system: TK-10 renal
SW-620 colon = system: SW-620 colon
OVCAR-5 ovarian = system: OVCAR-5 ovarian
BT-549 breast = system: BT-549 breast
M14 melanoma = system: M14 melanoma
HL-60(TB) leukemia = system: HL-60(TB) leukemia
MOLT-4 leukemia = system: MOLT-4 leukemia
A549 NSCLC = system: A549 NSCLC
EKVX NSCLC = system: EKVX NSCLC
HCT-15 colon = system: HCT-15 colon
SF-539 CNS = system: SF-539 CNS
CCRF-CEM leukemia = system: CCRF-CEM leukemia
SK-MEL-2 melanoma = system: SK-MEL-2 melanoma
COLO 205 colon = system: COLO 205 colon
SNB-75 CNS = system: SNB-75 CNS
NCI-H522 lung = system: NCI-H522 lung
T-47D breast = system: T-47D breast
RPMI-8226 leukemia = system: RPMI-8226 leukemia
MALME-3M melanoma = system: MALME-3M melanoma
SN12C renal = system: SN12C renal
NCI-H226 lung = system: NCI-H226 lung
DU-145 prostate = system: DU-145 prostate
SF-295 CNS = system: SF-295 CNS
UO-31 renal = system: UO-31 renal
UACC-62 melanoma = system: UACC-62 melanoma
U251 CNS = system: U251 CNS
HS 578T breast = system: HS 578T breast
OVCAR-4 ovarian = system: OVCAR-4 ovarian

O=C(/C=C/c1csc(Br)n1)NO
GI50 (PC-3 prostate): 3.17 µM | TGI (PC-3 prostate): 17.6 µM | GI50 (HOP-62 NSCLC): 2.76 µM | TGI (HOP-62 NSCLC): 11.5 µM | GI50 (IGROV1 ovarian): 2.06 µM | TGI (IGROV1 ovarian): 5.25 µM | GI50 (SK-MEL-28 melanoma): 3.46 µM | TGI (SK-MEL-28 melanoma): > 100 µM | GI50 (LOX IMVI melanoma): 1.31 µM | TGI (LOX IMVI melanoma): 2.69 µM | GI50 (UACC-257 melanoma): 1.31 µM | TGI (UACC-257 melanoma): 4.91 µM | GI50 (K-562 leukemia): 2.61 µM | TGI (K-562 leukemia): 15.4 µM | GI50 (HOP-92 NSCLC): 1.3 µM | TGI (HOP-92 NSCLC): 3.95 µM | GI50 (SF-268 CNS): 3.22 µM | TGI (SF-268 CNS): 9.29 µM | GI50 (KM12 colon): 3.61 µM | TGI (KM12 colon): 39.5 µM | GI50 (SNB-19 CNS): 3.82 µM | TGI (SNB-19 CNS): 88.4 µM | GI50 (NCI-H460 lung): 2.81 µM | TGI (NCI-H460 lung): 41.5 µM | GI50 (786-0 renal): 3.38 µM | TGI (786-0 renal): 34.7 µM | GI50 (NCI-H23 lung): 3.01 µM | TGI (NCI-H23 lung): 10.5 µM | GI50 (SK-MEL-5 melanoma): 1.82 µM | TGI (SK-MEL-5 melanoma): 3.5 µM | GI50 (HT29 colon): 2.31 µM | TGI (HT29 colon): > 100 µM | GI50 (MDA-MB-435): 2.88 µM | TGI (MDA-MB-435): 15.3 µM | GI50 (OVCAR-8 ovarian): 2.19 µM | TGI (OVCAR-8 ovarian): 8.33 µM | GI50 (CAKI-1 renal): 2.35 µM | TGI (CAKI-1 renal): 7.22 µM | GI50 (HCT-116 colon): 1.83 µM | TGI (HCT-116 colon): 4.51 µM | GI50 (HCC-2998 colon): 3.29 µM | TGI (HCC-2998 colon): 11.6 µM | GI50 (SK-OV-3 ovarian): 1.77 µM | TGI (SK-OV-3 ovarian): 5.09 µM | GI50 (MDA-MB-231 breast): 3.51 µM | TGI (MDA-MB-231 breast): 21.2 µM | GI50 (NCI/ADR-RES ovarian): 1.57 µM | TGI (NCI/ADR-RES ovarian): 8.36 µM | GI50 (ACHN renal): 2.36 µM | TGI (ACHN renal): 6.99 µM | GI50 (MCF7 breast): 3 µM | TGI (MCF7 breast): 16.7 µM | GI50 (A498 renal): 1.34 µM | TGI (A498 renal): 3.21 µM | GI50 (RXF 393 renal): 1.43 µM | TGI (RXF 393 renal): 3.65 µM | GI50 (TK-10 renal): 1.41 µM | TGI (TK-10 renal): 6.18 µM | GI50 (SW-620 colon): 1.89 µM | TGI (SW-620 colon): 5.52 µM | GI50 (OVCAR-5 ovarian): 2.25 µM | TGI (OVCAR-5 ovarian): > 100 µM | GI50 (BT-549 breast): 3.84 µM | TGI (BT-549 breast): 16.5 µM | GI50 (M14 melanoma): 3.3 µM | TGI (M14 melanoma): 17.7 µM | GI50 (HL-60(TB) leukemia): 2.51 µM | TGI (HL-60(TB) leukemia): 6.58 µM | GI50 (MOLT-4 leukemia): 2.3 µM | TGI (MOLT-4 leukemia): 10.2 µM | GI50 (A549 NSCLC): 2.45 µM | TGI (A549 NSCLC): 8.4 µM | GI50 (EKVX NSCLC): 4.23 µM | TGI (EKVX NSCLC): > 100 µM | GI50 (HCT-15 colon): 3.17 µM | TGI (HCT-15 colon): > 100 µM | GI50 (SF-539 CNS): 3.11 µM | TGI (SF-539 CNS): 14.8 µM | GI50 (CCRF-CEM leukemia): 2.73 µM | TGI (CCRF-CEM leukemia): > 100 µM | GI50 (SK-MEL-2 melanoma): 2.62 µM | TGI (SK-MEL-2 melanoma): 7.26 µM | GI50 (COLO 205 colon): 1.75 µM | TGI (COLO 205 colon): 3.36 µM | GI50 (SNB-75 CNS): 1.83 µM | TGI (SNB-75 CNS): 21 µM | GI50 (NCI-H522 lung): 2.48 µM | TGI (NCI-H522 lung): 11.2 µM | GI50 (T-47D breast): 2.03 µM | TGI (T-47D breast): 5.63 µM | GI50 (RPMI-8226 leukemia): 2.64 µM | TGI (RPMI-8226 leukemia): 18.8 µM | GI50 (MALME-3M melanoma): 1.41 µM | TGI (MALME-3M melanoma): 8.29 µM | GI50 (SN12C renal): 3.84 µM | TGI (SN12C renal): > 100 µM | GI50 (NCI-H226 lung): 5.22 µM | TGI (NCI-H226 lung): 20 µM | GI50 (DU-145 prostate): 3.16 µM | TGI (DU-145 prostate): 23.1 µM | GI50 (SF-295 CNS): 2.51 µM | TGI (SF-295 CNS): 6.35 µM | GI50 (UO-31 renal): 1.7 µM | TGI (UO-31 renal): 4.16 µM | GI50 (UACC-62 melanoma): 1.25 µM | TGI (UACC-62 melanoma): 3.2 µM | GI50 (U251 CNS): 1.9 µM | TGI (U251 CNS): 4.09 µM | GI50 (HS 578T breast): 2.05 µM | TGI (HS 578T breast): 8.66 µM | GI50 (OVCAR-4 ovarian): 6.3 µM | TGI (OVCAR-4 ovarian): > 100 µM

Reference: PubChem BioAssay (NCI)
